Source: paper PMC3690544 (European journal of pharmacology, 2012)
Where two headings read alike, the source gives them in different places.

How the values were obtained:
[1] = molecular target: T1, P-glycoprotein (Pgp) (Homo sapiens, UniProt P08183); format: cell-based
[2] = molecular target: T1, P-glycoprotein (Pgp); format: cell-based; remark: listed apart in the source

T1 sequence (P08183 whole entry): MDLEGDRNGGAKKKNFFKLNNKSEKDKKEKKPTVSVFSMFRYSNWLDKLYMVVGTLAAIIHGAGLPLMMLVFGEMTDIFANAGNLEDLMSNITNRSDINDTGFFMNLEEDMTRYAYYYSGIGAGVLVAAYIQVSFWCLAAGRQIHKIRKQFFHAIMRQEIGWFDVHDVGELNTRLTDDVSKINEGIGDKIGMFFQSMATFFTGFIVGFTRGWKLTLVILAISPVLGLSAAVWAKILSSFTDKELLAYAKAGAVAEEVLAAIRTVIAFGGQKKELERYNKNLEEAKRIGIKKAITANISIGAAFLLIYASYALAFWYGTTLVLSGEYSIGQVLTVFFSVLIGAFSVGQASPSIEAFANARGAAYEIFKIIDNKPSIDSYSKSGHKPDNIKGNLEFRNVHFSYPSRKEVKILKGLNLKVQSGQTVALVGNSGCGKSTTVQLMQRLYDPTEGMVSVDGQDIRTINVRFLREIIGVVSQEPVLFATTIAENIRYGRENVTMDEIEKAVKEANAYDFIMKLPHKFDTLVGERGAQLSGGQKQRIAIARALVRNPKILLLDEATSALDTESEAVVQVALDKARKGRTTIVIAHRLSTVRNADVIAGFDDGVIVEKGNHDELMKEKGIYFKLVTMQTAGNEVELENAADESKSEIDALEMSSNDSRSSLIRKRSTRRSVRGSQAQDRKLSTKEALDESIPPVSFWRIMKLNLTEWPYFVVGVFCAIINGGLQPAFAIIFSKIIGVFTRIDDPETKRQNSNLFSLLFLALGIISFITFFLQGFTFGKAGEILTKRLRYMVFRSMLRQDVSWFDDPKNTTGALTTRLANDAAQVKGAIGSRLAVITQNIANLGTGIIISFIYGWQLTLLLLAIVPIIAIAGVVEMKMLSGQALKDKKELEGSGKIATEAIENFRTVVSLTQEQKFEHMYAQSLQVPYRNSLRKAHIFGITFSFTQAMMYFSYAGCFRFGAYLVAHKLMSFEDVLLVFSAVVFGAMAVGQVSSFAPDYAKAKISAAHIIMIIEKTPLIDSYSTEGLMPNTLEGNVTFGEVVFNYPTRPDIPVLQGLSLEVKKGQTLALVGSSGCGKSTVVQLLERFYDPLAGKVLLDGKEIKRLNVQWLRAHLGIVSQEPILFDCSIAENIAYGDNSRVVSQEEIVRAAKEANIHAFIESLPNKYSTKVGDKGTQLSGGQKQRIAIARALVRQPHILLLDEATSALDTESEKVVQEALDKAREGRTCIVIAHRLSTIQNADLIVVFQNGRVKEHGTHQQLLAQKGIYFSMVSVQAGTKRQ

| SMILES | IC50 [1] [nM] | IC50 [2] [nM] |
| --- | --- | --- |
| COc1cc2c(cc1OC)CN(CCc1ccc(-n3nnc(-c4cc(OC)c(OC)cc4NC(=O)c4cc(=O)c5ccccc5o4)n3)cc1)CC2 [HM30181, N-(2-(2-(4-(2-(6,7-dimethoxy-3,4-dihydroisoquinolin-2(1H)-yl)ethyl)phenyl)-2H-tetrazol-5-yl)-4,5-dimethoxyphenyl)-4-oxo-4H-chromene-2-carboxamide] | 13.1 ± 2.3 | – |
| COc1cc2c(cc1OC)CN(CCc1ccc(NC(=O)c3cc(OC)c(OC)cc3NC(=O)c3cnc4ccccc4c3)cc1)CC2 [tariquidar] | – | 8.2 ± 2 |
